The assay deals with T1, opioid receptor mu (OPRM) (Homo sapiens, UniProt P35372).
T1 construct: purchased Perkin-Elmer Life Science (Boston, Mass.)
As to the kind of experiment: Eu-GTP based functional assay on GPCR microarray on porous glass substrate. It counts as biochemical. The settings on record: multiplexed array; Eu-GTP 10 nM, GDP 3 μM, 1 hour; FIG. 5E.

T1 sequence (P35372 whole entry): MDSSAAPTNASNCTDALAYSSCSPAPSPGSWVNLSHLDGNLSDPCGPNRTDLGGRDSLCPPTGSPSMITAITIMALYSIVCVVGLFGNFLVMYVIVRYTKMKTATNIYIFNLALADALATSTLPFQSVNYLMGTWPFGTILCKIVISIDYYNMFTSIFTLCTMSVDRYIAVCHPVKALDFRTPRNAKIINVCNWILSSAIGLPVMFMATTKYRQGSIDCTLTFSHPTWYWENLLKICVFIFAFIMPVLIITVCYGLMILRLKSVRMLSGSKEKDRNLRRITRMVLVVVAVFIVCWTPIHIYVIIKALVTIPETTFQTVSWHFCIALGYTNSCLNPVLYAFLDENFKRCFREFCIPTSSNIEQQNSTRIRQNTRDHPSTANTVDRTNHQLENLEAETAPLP

Turning to `C[C@@H](NC(=O)[C@@H](N)Cc1ccc(O)cc1)C(=O)NCC(=O)N(C)[C@@H](Cc1ccccc1)C(=O)NCCO` [DAMGO], the “activation of OPRM receptors by agonist (Eu-GTP fluorescence image)” value is given as “selective activation”.

Values taken from patent US7998414B2, “System for high throughput GPCR functional assay” (priority 2007, dated 2011).
